Earlier results in patent publication US20120172384A1, “HETEROCYCLYLAMINOPYRIMIDINES AS KINASE INHIBITORS” (priority 2009, published 2012).

Assays:
rheumatoid arthritis = rheumatoid arthritis (Weinblatt et al., 2008); cited from earlier work
organ transplantation = settings: Changelian et al., 2003; cited from earlier work

COc1cc(Nc2ncc(F)c(Nc3ccc4c(n3)N(COP(=O)(O)O)C(=O)C(C)(C)O4)n2)cc(OC)c1OC [Example R788]
efficacy in clinical study (rheumatoid arthritis): demonstrated efficacy

C[C@@H]1CCN(C(=O)CC#N)C[C@@H]1N(C)c1ncnc2[nH]ccc12 [CP-690,550]
efficacy in animal model of organ transplantation (organ transplantation): show efficacy
